This note sets out measurements from US9511073B2, “Aromatic amides and uses thereof” (TAXIS Pharmaceuticals, Inc., priority 2011, dated 2016).

Structures are written as SMILES. Values after ≈ are worked out from the molar mass of the structure shown. Where only a bound is given, the exact number is not on record here.

For the first test, the system named is Staphylococcus aureus (Isolate ID ATCC 29213). Kind of test: Bacterial assay: MIC by broth microdilution or agar dilution (CLSI), S. aureus ATCC 29213. Particulars: S. aureus (ATCC29213). The class given is cell-based. The gist of the method: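 MICs by CLSI broth microdilution or agar dilution against S. aureus ATCC 29213 and its FtsZ-G196A mutant. Values reported as ranges: A ≤0.25 μg/mL, B >0.25–1.0, C >1.0–16, D >16 μg/mL.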
(In broth dilution the organism is exposed to a series of concentrations in liquid medium.)
`NC(=O)c1c(F)ccc(OC(CC(O)CO)c2nc(-c3ccc(C(F)(F)F)cc3)c(Br)o2)c1F` (centres unmarked) [Compound 157, 3-(1-(5-bromo-4-(4-(trifluoromethyl)phenyl)oxazol-2-yl)-3,4-dihydroxybutoxy)-2,6-difluorobenzamide]: the “S. aureus MIC (μg/mL) Activity Range” value is given as “B (activity>0.25 μg/mL-1.0 μg/mL)”.

The test is the same for the next values; noted with them: Staphylococcus aureus, ATCC29213, read-out: S. aureus MIC (μg/mL) Activity Range, S. aureus (ATCC29213).
Regarding `NC(=O)c1c(F)ccc(OC(CNC(=O)c2cccnc2)c2nc(-c3ccc(C(F)(F)F)cc3)c(Br)o2)c1F` (centres unmarked) [Compound 295, N-(2-(5-bromo-4-(4-(trifluoromethyl)phenyl)oxazol-2-yl)-2-(3-carbamoyl-2,4-difluorophenoxy)ethyl)nicotinamide], the MIC is 0.25 to 1 µg/mL (≈ 0.409 to 1.64 µM).
Turning to `CN1CCN(C(=O)C(Oc2ccc(F)c(C(N)=O)c2F)c2nc(-c3ccc(Cl)cc3)cs2)CC1` (centres unmarked) [Compound 41, 3-(1-(4-(4-chlorophenyl)thiazol-2-yl)-2-(4-methylpiperazin-1-yl)-2-oxoethoxy)-2,6-difluorobenzamide], the MIC was in the range of 1 to 16 µg/mL (≈ 1.97 to 31.6 µM).
Regarding `NC(=O)c1c(F)ccc(OC(CO)c2scc(-c3ccc(Cl)cc3)[n+]2[O-])c1F` (centres unmarked) [Compound 267, 2-(1-(3-carbamoyl-2,4-difluorophenoxy)-2-hydroxyethyl)-4-(4-chlorophenyl)thiazole 3-oxide], the MIC was above 16 µg/mL.
For the compound `CNC(=O)CC(Oc1ccc(F)c(C(N)=O)c1F)c1nc(-c2ccc(C(F)(F)F)cc2)c(Br)o1` (centres unmarked) [Compound 87, 3-(1-(5-bromo-4-(4-(trifluoromethyl)phenyl)oxazol-2-yl)-3-(methylamino)-3-oxopropoxy)-2,6-difluorobenzamide], the MIC is 0.25 to 1 µg/mL (≈ 0.456 to 1.82 µM).
The same measure, in the same setting: next, `Cc1ccc(CNC(=O)OCC(Oc2ccc(F)c(C(N)=O)c2F)c2nc(-c3ccc(C(F)(F)F)cc3)c(Br)o2)n1C` (centres unmarked) [Compound 211, 2-(5-bromo-4-(4-(trifluoromethyl)phenyl)oxazol-2-yl)-2-(3-carbamoyl-2,4-difluorophenoxy)ethyl ((1,5-dimethyl-1H-pyrrol-2-yl)methyl)carbamate]: 0.25 to 1 µg/mL (≈ 0.38 to 1.52 µM).
Same read-out and setting: next, `CNC(=O)C(Oc1ccc(F)c(C(N)=O)c1F)c1nc(-c2ccc(Cl)cc2)cs1` (centres unmarked) [Compound 34, 3-(1-(4-(4-chlorophenyl)thiazol-2-yl)-2-(methylamino)-2-oxoethoxy)-2,6-difluorobenzamide]: below 0.25 µg/mL; `NC(=O)c1c(F)ccc(OC(CO)c2nc(-c3ccc(F)c(F)c3)c(Br)o2)c1F` (centres unmarked) [Compound 248, 3-(1-(5-bromo-4-(3,4-difluorophenyl)oxazol-2-yl)-2-hydroxyethoxy)-2,6-difluorobenzamide]: 1 to 16 µg/mL (≈ 2.1 to 33.7 µM); `Cc1noc(C(Oc2ccc(F)c(C(N)=O)c2F)c2nc(-c3ccc(C(F)(F)F)cc3)co2)n1` (centres unmarked) [Compound 188, 2,6-difluoro-3-((3-methyl-1,2,4-oxadiazol-5-yl)(4-(4-(trifluoromethyl)phenyl)oxazol-2-yl)methoxy)benzamide]: above 16 µg/mL.
Still for that read-out and setting: under `NC(=O)c1c(F)ccc(OC(COC(=O)CN2C(=O)c3ccccc3C2=O)c2nc(-c3ccc(C(F)(F)F)cc3)c(Br)o2)c1F` (centres unmarked) [Compound 60, 2-(5-bromo-4-(4-(trifluoromethyl)phenyl)oxazol-2-yl)-2-(3-carbamoyl-2,4-difluorophenoxy)ethyl 2-(1,3-dioxoisoindolin-2-yl)acetate] stands 0.25 to 1 µg/mL (≈ 0.36 to 1.44 µM).
With `CC(Oc1ccc(F)c(C(N)=O)c1F)c1nc(-c2ccc(C(F)(F)F)cn2)c(Br)o1` (centres unmarked) [Compound 54], the MIC lay in the range of 0.25 to 1 µg/mL (≈ 0.508 to 2.03 µM).
On the same count and under the same terms, next, `CCCc1oc(C(CCC)Oc2ccc(F)c(C(N)=O)c2F)nc1-c1ccc(Cl)cc1` (centres unmarked) [Compound 30]: 1 to 16 µg/mL (≈ 2.23 to 35.6 µM); `Cn1cccc1CNC(=O)OCC(Oc1ccc(F)c(C(N)=O)c1F)c1nc(-c2ccc(C(F)(F)F)cc2)c(Br)o1` (centres unmarked) [Compound 202, 2-(5-bromo-4-(4-(trifluoromethyl)phenyl)oxazol-2-yl)-2-(3-carbamoyl-2,4-difluorophenoxy)ethyl ((1-methyl-1H-pyrrol-2-yl)methyl)carbamate]: 0.25 to 1 µg/mL (≈ 0.389 to 1.55 µM); `CN(Cc1cccnc1)C(=O)OCC(Oc1ccc(F)c(C(N)=O)c1F)c1nc(-c2ccc(C(F)(F)F)cc2)c(Br)o1` (centres unmarked) [Compound 185, 2-(5-bromo-4-(4-(trifluoromethyl)phenyl)oxazol-2-yl)-2-(3-carbamoyl-2,4-difluorophenoxy)ethyl methyl(pyridin-3-ylmethyl)carbamate]: 0.25 to 1 µg/mL (≈ 0.381 to 1.53 µM).
For the compound `COc1cccc(-c2nc(C(CO)Oc3ccc(F)c(C(N)=O)c3F)oc2Br)c1` (centres unmarked) [Compound 117, 3-(1-(5-bromo-4-(3-methoxyphenyl)oxazol-2-yl)-2-hydroxyethoxy)-2,6-difluorobenzamide], the MIC is above 16 µg/mL.
On the same count and under the same terms, next, `CCC(Oc1ccc(F)c(C(N)=O)c1F)c1nc(CCOC(C)=O)oc1Br` (centres unmarked) [Compound 121, 2-(5-bromo-4-(1-(3-carbamoyl-2,4-difluorophenoxy)propyl)oxazol-2-yl)ethyl acetate]: above 16 µg/mL; `Cn1cnc(CNC(=O)OCC(Oc2ccc(F)c(C(N)=O)c2F)c2nc(-c3ccc(C(F)(F)F)cc3)c(Br)o2)c1` (centres unmarked) [Compound 203, 2-(5-bromo-4-(4-(trifluoromethyl)phenyl)oxazol-2-yl)-2-(3-carbamoyl-2,4-difluorophenoxy)ethyl ((1-methyl-1H-imidazol-4-yl)methyl)carbamate]: 0.25 to 1 µg/mL (≈ 0.388 to 1.55 µM).
Still for that read-out and setting: next, `NC(=O)c1c(F)ccc(OC(COC(=O)NCc2ccc[n+]([O-])c2)c2nc(-c3ccc(C(F)(F)F)cc3)c(Br)o2)c1F` (centres unmarked) [Compound 174, 3-((((2-(5-bromo-4-(4-(trifluoromethyl)phenyl)oxazol-2-yl)-2-(3-carbamoyl-2,4-difluorophenoxy)ethoxy)carbonyl)amino)methyl)pyridine 1-oxide]: above 16 µg/mL; `CN(CC(=O)OCC(Oc1ccc(F)c(C(N)=O)c1F)c1nc(-c2ccc(Cl)cc2)c(Cl)o1)C(=O)OC(C)(C)C` (centres unmarked) [Compound 58, 2-(3-carbamoyl-2,4-difluorophenoxy)-2-(5-chloro-4-(4-chlorophenyl)oxazol-2-yl)ethyl 2-((tert-butoxycarbonyl)(methyl)amino)acetate]: 1 to 16 µg/mL (≈ 1.67 to 26.6 µM); `CN(C)CC(=O)OCC(Oc1ccc(F)c(C(N)=O)c1F)c1nc(-c2ccc(C(F)(F)F)cc2)c(Br)o1` (centres unmarked) [Compound 57, 2-(5-bromo-4-(4-(trifluoromethyl)phenyl)oxazol-2-yl)-2-(3-carbamoyl-2,4-difluorophenoxy)ethyl 2-(dimethylamino)acetate]: 0.25 to 1 µg/mL (≈ 0.422 to 1.69 µM).
Same read-out and setting: next, `CC(=O)OCC(Oc1ccc(F)c(C(N)=O)c1F)c1nc(-c2ccc(Cl)cc2)c(Br)o1` (centres unmarked) [Compound 36]: 0.25 to 1 µg/mL (≈ 0.485 to 1.94 µM); `Cc1noc(CCNC(=O)OCC(Oc2ccc(F)c(C(N)=O)c2F)c2nc(-c3ccc(C(F)(F)F)cc3)c(Br)o2)n1` (centres unmarked) [Compound 171, 2-(5-bromo-4-(4-(trifluoromethyl)phenyl)oxazol-2-yl)-2-(3-carbamoyl-2,4-difluorophenoxy)ethyl (2-(3-methyl-1,2,4-oxadiazol-5-yl)ethyl)carbamate]: 0.25 to 1 µg/mL (≈ 0.379 to 1.51 µM).
In the case of `CSc1oc(C(CO)Oc2ccc(F)c(C(N)=O)c2F)nc1-c1ccc(C(F)(F)F)cc1` (centres unmarked) [Compound 271, 2,6-difluoro-3-(2-hydroxy-1-(5-(methylthio)-4-(4-(trifluoromethyl)phenyl)oxazol-2-yl)ethoxy)benzamide], the MIC lay in the range of 0.25 to 1 µg/mL (≈ 0.527 to 2.11 µM).
Still for that read-out and setting: next, `NC(=O)c1c(F)ccc(OC(CO)c2nc(-c3ccc(C(F)(F)F)cc3)sc2Br)c1F` (centres unmarked) [Compound 131, 3-(1-(5-bromo-2-(4-(trifluoromethyl)phenyl)thiazol-4-yl)-2-hydroxyethoxy)-2,6-difluorobenzamide]: above 16 µg/mL; `COc1ccc(-c2nc(C(CO)Oc3ccc(F)c(C(N)=O)c3F)oc2Br)cn1` (centres unmarked) [Compound 230, 3-(1-(5-bromo-4-(6-methoxypyridin-3-yl)oxazol-2-yl)-2-hydroxyethoxy)-2,6-difluorobenzamide]: 1 to 16 µg/mL (≈ 2.13 to 34 µM); `COc1ccc(-c2nc(C(CO)Oc3ccc(F)c(C(N)=O)c3F)oc2Br)nc1` (centres unmarked) [Compound 238, 3-(1-(5-bromo-4-(5-methoxypyridin-2-yl)oxazol-2-yl)-2-hydroxyethoxy)-2,6-difluorobenzamide]: above 16 µg/mL.
The same measure, in the same setting: next, `NC(=O)c1c(F)ccc(OC(COC(=O)CCC(=O)O)c2nc(-c3ccc(F)cc3F)c(Br)o2)c1F` (centres unmarked) [Compound 263, 4-(2-(5-bromo-4-(2,4-difluorophenyl)oxazol-2-yl)-2-(3 carbamoyl-2,4-difluorophenoxy)ethoxy)-4-oxobutanoic acid]: 1 to 16 µg/mL (≈ 1.74 to 27.8 µM); `NC(=O)c1c(F)ccc(OC(COCCN2CCOCC2)c2nc(-c3ccc(C(F)(F)F)cc3)c(Br)o2)c1F` (centres unmarked) [Compound 168, 3-(1-(5-bromo-4-(4-(trifluoromethyl)phenyl)oxazol-2-yl)-2-(2-morpholinoethoxy)ethoxy)-2,6-difluorobenzamide]: 1 to 16 µg/mL (≈ 1.61 to 25.8 µM).
Turning to `NC(=O)c1c(F)ccc(O[C@H](CO)c2nc(-c3ccc(F)cc3)c(Br)o2)c1F` [Compound 279B, (R)-3-(1-(5-bromo-4-(4-fluorophenyl)oxazol-2-yl)-2-hydroxyethoxy)-2,6-difluorobenzamide], the MIC was in the range of 0.25 to 1 µg/mL (≈ 0.547 to 2.19 µM).
The same measure, in the same setting: next, `Cc1nnc(C(Oc2ccc(F)c(C(N)=O)c2F)c2nc(-c3ccc(C(F)(F)F)cc3)co2)o1` (centres unmarked) [Compound 218, 2,6-difluoro-3-((5-methyl-1,3,4-oxadiazol-2-yl)(4-(4-(trifluoromethyl)phenyl)oxazol-2-yl)methoxy)benzamide]: above 16 µg/mL.
On the same count and under the same terms, under `NC(=O)c1c(F)ccc(OC(COC(=O)Nc2nnn[nH]2)c2nc(-c3ccc(C(F)(F)F)cc3)c(Br)o2)c1F` (centres unmarked) [Compound 177, 2-(5-bromo-4-(4-(trifluoromethyl)phenyl)oxazol-2-yl)-2-(3-carbamoyl-2,4-difluorophenoxy)ethyl 1H-tetrazol-5-ylcarbamate] stands above 16 µg/mL.
For `NC(=O)c1c(F)ccc(O[C@H](CO)c2nc3cc(Cl)cnc3s2)c1F` [Compound 266B, (R)-3-(1-(6-chlorothiazolo[5,4-b]pyridin-2-yl)-2-hydroxyethoxy)-2,6-difluorobenzamide], the MIC lay in the range of 1 to 16 µg/mL (≈ 2.59 to 41.5 µM).
